{
  "source": "patent US10561665B2",
  "about": "“Treatment of autism” (priority 2014, dated 2020)",
  "key": {"[1]": {"assay": "liver microsome stability", "assay_type": "in vitro ADME, Mouse", "details": "for half-life at 5 μM: mouse, liver microsomes"}, "mice": {"tested_on": "mice", "details": "cited from earlier work; for adverse effects at very high doses: 50-100 mg/kg"}, "[2]": {"tested_on": "mice with lesions of the nucleus basalis magnocellularis", "details": "cited from earlier work; for increase of time remaining in the lighted compartment versus saline: nBM lesioned mice, compound given during training, optimal performance; for best dose for memory enhancement: passive avoidance, 24 hour retention"}, "cholinesterase [3]": {"molecular_target": "cholinesterase", "details": "cholinesterase inhibitor (Han et al 1991); cited from earlier work"}, "cholinesterase [4]": {"tested_on": "cholinesterase", "assay": "cholinesterase inhibition (IC50)", "assay_type": "biochemical"}, "Mecp2 mice [5]": {"tested_on": "Mecp2 mice", "assay": "respiratory function (plethysmograph) in Mecp2 mutant mice and controls", "assay_type": "in vivo", "details": "IP or gavage, 0.1 to 20 mg/kg", "experimental": "Respiratory function was monitored in a plethysmograph (EMKA Technologies) for 30 minutes prior to and 1 hour after drug administration (one set of mice received IP injections and one set of mice received oral gavage). [N=2 mice/group at each dose and each administration route; for the vehicle controls, N=6 WT/group; N=6 Mecp2/group]. Data were analyzed using repeated measures analysis of variance."}, "[6]": {"assay": "stability in mouse plasma"}, "α7 nicotinic receptors": {"molecular_target": "T1, α7 nicotinic receptors (Rattus norvegicus, UniProt Q05941)", "T1 construct": "Primary cultured rat neurons can be depolarized by the application of 1.5 mM choline; endogenous in cells; host or cells: primary cultured rat neurons", "T1 sequence (Q05941 23-502)": "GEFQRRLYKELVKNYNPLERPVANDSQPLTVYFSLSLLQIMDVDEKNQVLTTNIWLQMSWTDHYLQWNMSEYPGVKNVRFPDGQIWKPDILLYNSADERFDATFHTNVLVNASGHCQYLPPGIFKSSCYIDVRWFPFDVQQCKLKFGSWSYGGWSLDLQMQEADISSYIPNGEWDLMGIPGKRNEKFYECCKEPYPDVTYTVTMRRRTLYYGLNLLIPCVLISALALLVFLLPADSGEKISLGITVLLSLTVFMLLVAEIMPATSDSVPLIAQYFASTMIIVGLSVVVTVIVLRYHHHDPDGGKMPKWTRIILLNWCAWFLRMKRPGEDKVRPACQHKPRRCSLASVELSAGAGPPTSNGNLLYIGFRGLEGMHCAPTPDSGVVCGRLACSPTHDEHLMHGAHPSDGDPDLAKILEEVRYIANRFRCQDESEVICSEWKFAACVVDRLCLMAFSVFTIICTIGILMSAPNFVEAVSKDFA", "details": "cited from earlier work"}, "female Mecp2 mice": {"tested_on": "female Mecp2 mice", "assay": "novel object recognition (NOR) task in female Mecp2 mice", "assay_type": "in vivo", "details": "Mecp2 females", "experimental": "Cognitive function was assessed using the novel object recognition (NOR) task using methods previously described (Schaevitz et al. 2013). […] Novel object memory was assessed during three sessions. This task relies on the innate tendency of a mouse to explore unfamiliar objects vs. familiar objects. Testing was performed in an open-field arena. Twenty-four hours prior to training, mice were habituated to the arena for 10 min. Ninety minutes before training, the mice were administered drug or vehicle (0.1, 0.5, 1.0, 2.5 and 5.0 mg/kg IP). During training, mice were given 10 min to explore two identical Lego objects (A+A). Short- and long-term object memory were assessed in two subsequent sessions ([…]) during which mice were given 10 min to explore the familiar (A) or a novel (B or C) object. The duration of exploration (defined as the mouse's snout or forelimbs physically touching or approaching within 1 cm of an object) of familiar and novel objects was measured. The amount of time spent exploring the novel object over the total time exploring both novel and familiar objects in each session was used to measure object memory. [N=6/dose of 0.1, 0.5 and 1.0; N=1/dose of 2.5 and 5.0 mg/kg; for vehicle N=6 WT and N=6 Mecp2 mice.]\nFor the novel objection recognition task data, we created a matrix of all wildtype and Mecp2 females who were administered the vehicle and a second matrix comparing Mecp2 females with and without the drug (all doses combined)."}, "CaCo-2 cells": {"tested_on": "CaCo-2 cells", "assay": "in vitro permeability of a layer of CaCo-2 cells", "assay_type": "in vitro ADME, human", "details": "predicted from CaCo-2 permeability"}, "Mecp2 mice [7]": {"tested_on": "Mecp2 mice", "assay": "locomotor activity (photobeam) in Mecp2 mutant mice and controls", "assay_type": "in vivo", "details": "0.1 to 20 mg/kg", "experimental": "Locomotor activity was monitored using methods described previously (Shaevitz et al. 2013 Genes Brain Behav, 12(7): 732-40. doi: 10.1111/gbb.12070). Mecp2 mutant males (between 1 and 3 months old) and females (between 3 and 6 months old) and age-matched controls were monitored for one-hour prior to and 12 hours after drug (or vehicle: 20% DMSO in saline) administration (one set of mice received IP injections and one set of mice received oral gavage) in doses that ranged from 0.1-20 mg/kg). Activity was measured across the 12-h dark cycle using a photobeam activity system (San Diego instruments, San Diego, Calif., USA). Mice were placed individually into a cage (47×25×21 cm) inside a rectangular arena equipped with a 3×8 array of photobeams. The average number of ambulatory (two adjacent) and fine (repeated single) beam breaks per hour over the 12 h was compared. [N=2 mice/group at each dose and each administration route; for the vehicle controls, N=6 WT/group; N=6 Mecp2/group]. Data were analyzed using repeated measures analysis of variance."}, "[8]": {"tested_on": "patient with 15q13.3 deletion syndrome", "details": "one patient; cited from earlier work"}, "[9]": {"tested_on": "mild cognitive impairment population", "details": "patients with mild cognitive impairment; cited from earlier work"}, "[10]": {"details": "human patients; cited from earlier work"}, "ASD patients": {"tested_on": "ASD patients", "details": "case reports, open-label and poorly documented studies; cited from earlier work"}, "[11]": {"details": "5.0 μM, Mouse, read-out: NADPH-dependent T1/2 (half-life)"}, "[12]": {"details": "5.0 μM, Mouse, read-out: NADPH-free T1/2 (half-life)"}, "[13]": {"details": "all doses combined (0.1-5.0 mg/kg IP)"}},
  "note": "Like-named read-outs stand apart in the source and are kept apart here.",
  "data": [
    {"molecule": "COc1ccc2c3c1O[C@H]1C[C@@H](O)C=C[C@@]31CCN(C)C2", "note": "[Galanthamine HBr, reference compound]", "values": [
      {"measurement": "NADPH-dependent CLint (microsomal intrinsic clearance)", "setting": "[1]; 5.0 μM, Mouse", "value": 0.0, "unit": "μl min^−1 mg−^1"},
      {"measurement": "NADPH-free CLint (microsomal intrinsic clearance)", "setting": "[1]; 5.0 μM, Mouse", "value": 0.0, "unit": "μl min^−1 mg−^1"},
      {"measurement": "half-life at 5 μM", "setting": "[1]; [11]", "value": "> 1", "unit": "h"},
      {"measurement": "half-life at 5 μM", "setting": "[1]; [12]", "value": "> 1", "unit": "h"}
    ]},
    {"molecule": "CCCCNC(=O)O[C@H]1C=C[C@@]23CCN(C)Cc4ccc(OC)c(c42)O[C@H]3C1", "note": "[Galantamine n-butylcarbamate, n-butylcarbamate derivative of galantamine]", "values": [
      {"measurement": "adverse effects at very high doses", "setting": "mice; listed as n-butylcarbamate", "value": "wobbly and off-balance with rapid heart rate still present at 4 hours, but were recovered at 24 hours"},
      {"measurement": "adverse effects at very high doses", "setting": "mice", "value": "affects cardiac and motor functions at very high doses"},
      {"measurement": "lethality (dose without lethality)", "setting": "mice", "value": "> 100", "unit": "mg/kg"},
      {"measurement": "increase of time remaining in the lighted compartment versus saline", "setting": "[2]", "value": "about 100 seconds"},
      {"measurement": "best dose for memory enhancement", "setting": "[2]", "value": 0.5, "unit": "mg/kg"},
      {"measurement": "IC50", "setting": "cholinesterase [3]", "value": 1.09, "unit": "µM"},
      {"measurement": "cholinesterase inhibitory potency relative to galantamine", "setting": "cholinesterase [4]", "value": "about 36%"},
      {"measurement": "effect on respiratory activity", "setting": "Mecp2 mice [5]", "value": "did not affect respiratory activity"},
      {"measurement": "stability in mouse plasma", "setting": "[6]", "value": "stable for greater than two hours"},
      {"measurement": "concentration at two hours compared with galantamine", "setting": "[6]; two hours", "value": "slightly lower than those of galantamine"},
      {"measurement": "effect of FK-1 antibody on the enhancement", "setting": "α7 nicotinic receptors; antibody to the galantamine recognition site on nicotinic receptors", "value": "blocked by the antibody to the galantamine recognition site on nicotinic receptors, FK-1"},
      {"measurement": "NOR task learning versus vehicle", "setting": "female Mecp2 mice; Chi square p=0.0321", "value": "learned the NOR task significantly better than vehicle-injected Mecp2 mice"},
      {"measurement": "share of mice with NOR scores = or below 0.5", "setting": "female Mecp2 mice; [13]", "value": 65, "unit": "%"},
      {"measurement": "share of mice with NOR scores above 0.5", "setting": "female Mecp2 mice; [13]", "value": 35, "unit": "%"},
      {"measurement": "predicted oral bioavailability", "setting": "CaCo-2 cells", "value": 80, "unit": "%"},
      {"measurement": "NADPH-dependent CLint (microsomal intrinsic clearance)", "setting": "[1]; 5.0 μM, Mouse", "value": 23.5, "unit": "μl min^−1 mg−^1"},
      {"measurement": "NADPH-free CLint (microsomal intrinsic clearance)", "setting": "[1]; 5.0 μM, Mouse", "value": 0.0, "unit": "μl min^−1 mg−^1"},
      {"measurement": "half-life at 5 μM", "setting": "[1]; [11]", "value": 1.64, "unit": "h"},
      {"measurement": "half-life at 5 μM", "setting": "[1]; [12]", "value": "> 1", "unit": "h"},
      {"measurement": "half-life at 5 μM", "setting": "[1]; in-vitro preparation of liver microsomes, read-out: half-life in liver microsomes", "value": "> 1", "unit": "h"},
      {"measurement": "tolerability", "setting": "Mecp2 mice [7]; Mecp2 mice of both sexes and controls, locomotor and respiratory functions", "value": "safe and well tolerated"},
      {"measurement": "effect on locomotor activity", "setting": "Mecp2 mice [7]; IP or gavage, Mecp2 mice of either sex", "value": "did not impair locomotor activity"}
    ]},
    {"molecule": "COc1ccc2c3c1O[C@H]1C[C@@H](O)C=C[C@@]31CCN(C)C2", "note": "[Galantamine]", "values": [
      {"measurement": "increase of time remaining in the lighted compartment versus saline", "setting": "[2]", "value": "about 125 seconds"},
      {"measurement": "best dose for memory enhancement", "setting": "[2]", "value": 3, "unit": "mg/kg"},
      {"measurement": "episodes of rage", "setting": "[8]", "value": "striking decrease in episodes of rage"},
      {"measurement": "mortality in mild cognitive impairment", "setting": "[9]", "value": "increased mortality"},
      {"measurement": "plasma half-life", "setting": "[10]", "value": "about 7 hours"},
      {"measurement": "enhancement of the depolarization caused by choline", "setting": "α7 nicotinic receptors; 1 μM compound, 1.5 mM choline, primary cultured rat neurons", "value": "20.6±4.2", "unit": "%"},
      {"measurement": "clinical outcome in ASD", "setting": "ASD patients", "value": "some beneficial results"}
    ]}
  ]
}
